Reference: the NIST ThermoML archive (doi:10.1016/j.fluid.2007.04.030)

Test: xn = mol fraction of the nth substance listed
Conditions: 101 kPa, Liquid

COc1cc2c(cc1O)CC1c3c(cc(O)c(OC)c3-2)CCN1C (stereo not given) [boldine] + CCCCO
mass density [kg/m3]
Conditions | x1 = 0.00228 | x1 = 0.00461 | x1 = 0.00696 | x1 = 0.00936 | x1 = 0.01178 | x1 = 0.01427 | x1 = 0.01678
283.15 K | 820.49 | 823.85 | 827.2 | 830.57 | 833.94 | 837.36 | 840.79
288.15 K | 816.73 | 820.08 | 823.43 | 826.79 | 830.16 | 833.57 | 837
293.15 K | 812.93 | 816.28 | 819.62 | 822.98 | 826.35 | 829.75 | 833.18
298.15 K | 809.11 | 812.45 | 815.8 | 819.15 | 822.52 | 825.92 | 829.34
303.15 K | 805.26 | 808.6 | 811.94 | 815.29 | 818.66 | 822.06 | 825.48
308.15 K | 801.39 | 804.72 | 808.06 | 811.4 | 814.77 | 818.16 | 821.58
313.15 K | 797.47 | 800.81 | 804.14 | 807.48 | 810.84 | 814.23 | 817.64
318.15 K | 793.52 | 796.85 | 800.17 | 803.52 | 806.87 | 810.25 | 813.67
323.15 K | 789.52 | 792.84 | 796.17 | 799.51 | 802.86 | 806.23 | 809.66
328.15 K | 785.47 | 788.79 | 792.11 | 795.45 | 798.79 | 802.17 | 805.59
333.15 K | 781.35 | 784.67 | 787.99 | 791.32 | 794.67 | 798.05 | 801.46

COc1cc2c(cc1O)CC1c3c(cc(O)c(OC)c3-2)CCN1C (stereo not given) [boldine] + CCCO
mass density [kg/m3]
Conditions | x1 = 0.00185 | x1 = 0.00374 | x1 = 0.00565 | x1 = 0.0076 | x1 = 0.00957 | x1 = 0.01158 | x1 = 0.01361
283.15 K | 814.99 | 818.36 | 821.77 | 825.23 | 828.61 | 832.08 | 835.59
288.15 K | 811.04 | 814.41 | 817.81 | 821.26 | 824.65 | 828.12 | 831.61
293.15 K | 807.05 | 810.42 | 813.82 | 817.26 | 820.65 | 824.12 | 827.61
298.15 K | 803.04 | 806.4 | 809.8 | 813.24 | 816.64 | 820.1 | 823.59
303.15 K | 799 | 802.35 | 805.75 | 809.2 | 812.59 | 816.05 | 819.54
308.15 K | 794.92 | 798.27 | 801.67 | 805.12 | 808.5 | 811.96 | 815.45
313.15 K | 790.81 | 794.14 | 797.55 | 800.98 | 804.37 | 807.83 | 811.31
318.15 K | 786.65 | 789.98 | 793.39 | 796.82 | 800.21 | 803.65 | 807.13
323.15 K | 782.43 | 785.77 | 789.17 | 792.6 | 795.99 | 799.42 | 802.91
328.15 K | 778.16 | 781.5 | 784.89 | 788.33 | 791.71 | 795.16 | 798.63
333.15 K | 773.81 | 777.16 | 780.54 | 783.99 | 787.37 | 790.82 | 794.3

CCCCO [butan-1-ol] + COc1cc2c(cc1O)CC1c3c(cc(O)c(OC)c3-2)CCN1C
x2 = 0
Conditions | mass density [kg/m3]
283.15 K | 817.15
288.15 K | 813.38
293.15 K | 809.59
298.15 K | 805.77
303.15 K | 801.92
308.15 K | 798.05
313.15 K | 794.14
318.15 K | 790.19
323.15 K | 786.19
328.15 K | 782.14
333.15 K | 778.03
